Measurements from ChEMBL document CHEMBL4190229, “Growth Inhibition of Colon Cancer and Melanoma Cells by Versiol Derivatives from a Paraconiothyrium Species” (J Nat Prod, 2017).

Legend:
KM12 = assay: Antiproliferative activity against human KM12 cells after 48 hrs by XTT assay; conditions: KM12, 48 h
[1] = system: Panel NCI-60 (60 carcinoma cell lines); assay: Antiproliferative activity against human NCI60 cells at 10 uM after 48 hrs by sulforhodamine B assay relative to control; format: functional
COLO 205 = assay: Antiproliferative activity against human COLO205 cells after 48 hrs by XTT assay; conditions: COLO 205, 48 h
[2] = system: Panel NCI-60 (60 carcinoma cell lines); assay: Antiproliferative activity against human NCI60 cells after 48 hrs by sulforhodamine B assay; format: functional, cell-based

Work on `CC(/C=C/C=C(\C)[C@H](O)[C@H](C)C(=O)O[C@H]1C[C@H](C)C=C2C=C[C@@]3(C)O[C@@H](O)CC(=O)[C@]3(C)[C@H]21)=C\C=C\C(=O)O` yielded an IC50 (KM12) of less than 1.25 µM, an Activity [1] of -3% and an IC50 (COLO 205) of less than 1.25 µM.

Compound `CC(=O)CC/C=C(\C)[C@H](O)[C@H](C)C(=O)O[C@H]1C[C@H](C)C=C2C=C[C@@]3(C)O[C@@H](O)CC(=O)[C@]3(C)[C@H]21` has an IC50 (KM12) of less than 1.25 µM, an Activity [1] of -34% and an IC50 (COLO 205) of less than 1.25 µM. For the same compound, the Activity [2] was “Dose-dependent effect”.

With `C/C(=C\C=C\[C@H](C)CC(=O)O)[C@H](O)[C@H](C)C(=O)O[C@H]1C[C@@H](C)[C@@H](O)c2ccc(C)c(C)c21` the IC50 (KM12) was 6.5 µM, the Activity [1] was 89% and the IC50 (COLO 205) was 12.5 µM.
